Measured values as given in paper PMC8329197, “Compounds targeting OSBPL7 increase ABCA1-dependent cholesterol efflux preserving kidney function in two models of kidney disease” (Nature Communications, 2021).
Several values for one entry are separate records, joined by “and”; a condition that tells them apart may be missing. Identical values can stand only once.

Legend:
normal human fibroblasts = assay: Cholesterol efflux to apoAI in normal human fibroblasts; conditions: for Cholesterol Efflux (%), Normal Fibroblasts: efflux to apoAI, Cpd H, Cpd J 10 μM, single experiments
[1] = test system: Tangier (ABCA1-deficient) fibroblasts; assay: Cholesterol efflux in Tangier (ABCA1-deficient) fibroblasts; conditions: for Cholesterol Efflux (%), Tangier Fibroblasts: ABCA1-deficient, Cpd H, Cpd J 10 μM, single experiments
[2] = molecular target: human cannabinoid 1 receptor (hCB1-R) (Homo sapiens, UniProt P21554); assay: Potency for binding to the CB1R in vitro (Ki); conditions: human CB1 receptor binding
OSBPL7 = test system: T1, OSBPL7; assay: Competition with ^3H-Cpd K UV cross-linking to FLAG-tagged OSBPL7 in HEK293 cells (immunoprecipitation, autoradiography); type: binding, human; set-up: OSBP7 percentage of inhibition / OSBP7 percentage of inhibition, average: concentration or dose not given beside the values; OSBPL7 Competition %: dose or concentration left out as unconfirmed; conditions: for OSBP7 percentage of inhibition, average: average of 3; for OSBPL7 Competition %: average(SEM); for OSBP7 percentage of inhibition: single experiments (3 per compound)
T1 construct: Plasmids expressing each as a full-length protein with a C-terminal FLAG tag were obtained; expressed in transfected cells; host or cells: HEK293
Protocol: Briefly, a plasmid expressing a candidate target of interest fused with a FLAG tag was transfected into HEK293 cells. After 24 h, tritiated compound K at a concentration capable of inducing ABCA1-mediated cholesterol efflux (1.0 μM) was added for 3 h, then the live cells were exposed to UV-light (ʎ = 336 nm) to query potential compound/target cross-linking in situ. Cell lysates were prepared, the expressed protein was then selectively immunoprecipitated using an anti-FLAG antibody coupled to sepharose beads, bound proteins were separated by SDS-PAGE, and two identical blots were prepared and probed by western blot and by autoradiography to detect protein expression and presence or absence of compound crosslinking, respectively. The flow chart of this screen is illustrated in Fig. 2. Figure 2d illustrates the ability of Cpd A and Cpd G to displace tritiated Cpd K from overexpressed and immunoprecipitated OSBPL7. Figure 3b illustrates the use of this assay to detect binding of tritiated Cpd K to overexpressed and immunoprecipitated variants of OSBPL7 containing point mutations in the predicted oxysterol binging pocket of OSBPL7. The advantages of this method are: i. the use of plasmid transfection leads to high expression of each candidate which reduces the likelihood to miss an authentic target for those which may be expressed at low endogenous levels, ii. the interaction of the chemical probe with its target occurs in a relevant biological context (live cells) at a pharmacologically active concentration, and iii. immunoprecipitation allows the expressed protein of interest to be purified from background proteins, substantially improving the signal/noise ratio.

ABCA1 mRNA = ABCA1 mRNA by quantitative real-time PCR in cholesterol-loaded THP1 macrophages; type: cell-based, human; conditions: 24 h; for Effect on ABCA1 mRNA: up to 25 μM, THP1 macrophages
Protocol: RNA was isolated using RNEasy Plus Mini kit (Qiagen). Reverse transcription was performed using qScript cDNA Super Mix (Quantabio) according to the manufacturer’s instructions. Quantitative real-time PCR was performed using TaqMan Fast Universal PCR Master Mix and Taqman gene expression assays (Supplementary Table 7).

human THP1 macrophages = assay: apoAI-mediated (ABCA1) cholesterol efflux from cholesterol-loaded THP1 macrophages; type: cell-based; set-up: ABCA1 Efflux %: dose or concentration left out as unconfirmed; conditions: for ABCA1 percentage of induction, average: average of 3; for ABCA1 Efflux %: average(SEM); for ABCA1 percentage of induction: single experiments (3 per compound); for ApoA1-mediated Cholesterol Efflux (Fold increase over vehicle control), mean / ApoA1-mediated Cholesterol Efflux (%) / ApoA1-mediated Cholesterol Efflux (Fold increase over vehicle control): 5 µM; for ApoA1-mediated Cholesterol Efflux (Fold increase over vehicle control), mean / ApoA1-mediated Cholesterol Efflux (%) / ApoA1-mediated Cholesterol Efflux (Fold increase over vehicle control) / ABCA1 Efflux active/ inactive: THP1 cells; for ApoA1-mediated Cholesterol Efflux (Fold increase over vehicle control), mean: mean of 3; for ApoA1-mediated Cholesterol Efflux (%) / ApoA1-mediated Cholesterol Efflux (Fold increase over vehicle control): single experiments; for Induction of ABCA1 cholesterol efflux: THP1 cells (Fig. 3a, 4a); for ABCA1 Efflux active/ inactive: vs. the effect of T1317
Col4a3 KO mice = assay: Alport syndrome model: ACR, serum creatinine, BUN, body weight (also vs ramipril); conditions: spot urines, 8-week old Col4a3 KO mice treated from the age of 4 weeks; individual mouse values; listed as Ram

human cannabinoid 1 receptor (hCB1-R), sequence (P21554 whole entry): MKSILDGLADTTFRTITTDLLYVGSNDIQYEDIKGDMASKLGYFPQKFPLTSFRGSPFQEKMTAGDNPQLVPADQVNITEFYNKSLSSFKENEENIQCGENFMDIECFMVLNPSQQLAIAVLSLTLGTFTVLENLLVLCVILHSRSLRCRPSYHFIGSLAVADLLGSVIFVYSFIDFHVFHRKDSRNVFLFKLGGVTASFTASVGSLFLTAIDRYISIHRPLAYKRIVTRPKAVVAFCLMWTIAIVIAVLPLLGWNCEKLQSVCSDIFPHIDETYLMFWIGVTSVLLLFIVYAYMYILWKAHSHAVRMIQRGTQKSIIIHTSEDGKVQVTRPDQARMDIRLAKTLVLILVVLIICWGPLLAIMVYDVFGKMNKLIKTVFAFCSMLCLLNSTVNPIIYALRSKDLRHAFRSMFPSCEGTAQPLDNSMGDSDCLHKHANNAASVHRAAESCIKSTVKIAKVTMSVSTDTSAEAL

Structure (SMILES) | OSBP7 percentage of inhibition, average (OSBPL7) [%] | OSBPL7 Competition % (OSBPL7) | OSBP7 percentage of inhibition (OSBPL7) | ABCA1 percentage of induction, average (human THP1 macrophages) [%] | ABCA1 Efflux % (human THP1 macrophages) | ABCA1 percentage of induction (human THP1 macrophages) | ABCA1 Efflux active/ inactive (human THP1 macrophages) | other results
O=C(N[C@@H]1CCCC[C@H]1O)c1cnc(OCC2CC2)c(-c2ccc(Cl)cc2)c1 [Cpd H] | 55 | 55(5.0) % | 49% and 51% and 65% | 106 | 106(6.8) % | 112% and 92% and 113% | – | Cholesterol efflux to apoAI from normal fibroblasts (normal human fibroblasts): increase cholesterol efflux to apoAI from normal; Cholesterol Efflux (%), Normal Fibroblasts (normal human fibroblasts): 3.97% and 4.44% and 4.67%; Cholesterol efflux to apoAI from ABCA1-deficient fibroblasts [1]: not from ABCA1-deficient fibroblasts; Cholesterol Efflux (%), Tangier Fibroblasts [1]: 1.75% and 1.88% and 1.89%; Ki [2]: 11.4 ± 4.5 nM; Effect on ABCA1 mRNA (ABCA1 mRNA): no effect; EC50 (human THP1 macrophages; THP-1, apoAI-dependent cholesterol efflux from human THP1 cells): 120 nM
O=C(N[C@H]1CCCC[C@H]1O)c1cnc(OCC(F)(F)F)c(-c2ccc(Cl)c(Cl)c2)c1 [Cpd L] | 53 | 53(4.7) % | 55% and 44% and 60% | 104 | 104(18.8) % | 94% and 77% and 140% | – | Ki [2]: 7000 nM
O=C(Nc1cnc(OCC(F)(F)F)c(-c2ccc(Cl)cc2)c1)c1cccnc1 [Cpd M] | 98 | 98(5.2) % | 107% and 97% and 89% | 113 | 133(42.5) % | – | – | Ki [2]: > 10000 nM
O=S(=O)(c1ccccc1)N(CC(F)(F)F)c1ccc(C(O)(C(F)(F)F)C(F)(F)F)cc1 [T1317, reference compound] | – | – | – | – | – | – | – | Cholesterol efflux to apoAI from normal fibroblasts (normal human fibroblasts): increase cholesterol efflux to apoAI from normal; Cholesterol Efflux (%), Normal Fibroblasts (normal human fibroblasts): 5.16% and 5.7% and 5.82%; Cholesterol efflux to apoAI from ABCA1-deficient fibroblasts [1]: not from ABCA1-deficient fibroblasts; Cholesterol Efflux (%), Tangier Fibroblasts [1]: 2.04% and 2.39% and 2.47%; Upregulation of ABCA1 mRNA (ABCA1 mRNA; cholesterol-loaded THP1 macrophages): ~ 5 fold
Cc1c(C(=O)c2cccc3ccccc23)c2cccc3c2n1[C@H](CN1CCOCC1)CO3 [WIN55-212-2, reference compound] | – | – | – | – | – | – | – | ApoA1-mediated Cholesterol Efflux (Fold increase over vehicle control), mean (human THP1 macrophages): 0.882 fold; ApoA1-mediated Cholesterol Efflux (%) (human THP1 macrophages): 2.57% and 2.5% and 1.3%; ApoA1-mediated Cholesterol Efflux (Fold increase over vehicle control) (human THP1 macrophages): 0.895 fold and 1.016 fold and 0.735 fold; Induction of ABCA1 cholesterol efflux (human THP1 macrophages): inactive
Cc1cncc(-c2cc(NC(=O)c3cccnc3)cnc2OCC(F)(F)F)c1 [Cpd S] | 0.333 | 0(0.3) % | 0% and 1% | 2.67 | 3(0.8) % | 1% and 3% and 4% | Inactive | –
CCOC(=O)[C@H](CCc1ccccc1)N[C@@H](C)C(=O)N1[C@H](C(=O)O)C[C@@H]2CCC[C@@H]21 [ramipril, reference compound] | – | – | – | – | – | – | – | Albumin to Creatinine ratio (Col4a3 KO mice): 31.85 mg Alb. /mg Cre and 41.0281 mg Alb. /mg Cre and 31.514 mg Alb. /mg Cre and 21.7026 mg Alb. /mg Cre and 31.192 mg Alb. /mg Cre
CCCCC/C=C\C/C=C\C/C=C\C/C=C\CCCC(=O)NCCCl [ACEA, arachidonyl choloroethylamine, reference compound] | – | – | – | – | – | – | – | ApoA1-mediated Cholesterol Efflux (Fold increase over vehicle control), mean (human THP1 macrophages): 0.962 fold; ApoA1-mediated Cholesterol Efflux (%) (human THP1 macrophages): 3% and 2.5% and 1.4%; ApoA1-mediated Cholesterol Efflux (Fold increase over vehicle control) (human THP1 macrophages): 1.047 fold and 1.044 fold and 0.796 fold; Induction of ABCA1 cholesterol efflux (human THP1 macrophages): inactive
O=C(N[C@@H]1CCCOC1=O)c1cc(-c2ccc(Cl)cc2)c(OCC(F)(F)F)cn1 [Cpd Q] | 8 | 8(2.2) % | 12% and 6% and 5% | 2 | 2(0.6) % | 1% and 2% and 3% | Inactive | –
Cc1cc(-c2cc(NC(=O)c3cccnc3)cnc2OCC(F)(F)F)ccn1 [Cpd R] | 17 | 17(5.0) % | – | -10 | -10(5) % | – | Inactive | –
Cc1c(C(=O)NN2CCCCC2)nn(-c2ccc(Cl)cc2Cl)c1-c1ccc(Cl)cc1 [rimonabant, reference compound] | 0 | 0(0) % | 0% | 0 | 0(0) % | 0% | Inactive | ApoA1-mediated Cholesterol Efflux (%) (human THP1 macrophages): 3.95% and 2.4% and 1.2%; Induction of ABCA1 cholesterol efflux (human THP1 macrophages): did not induce ABCA1 cholesterol efflux
Cn1cccc(NC(=O)c2cc(-c3ccc(Cl)cc3)c(OCC(F)(F)F)cn2)c1=O [Cpd P] | 0 | 0(0) % | 0% | 3.67 | 4(0.9) % | 4% and 5% and 2% | Inactive | –
O=C(N[C@@H]1CCCC[C@H]1O)c1cnc(OCC(F)(F)F)c(-c2ccc(Cl)cc2)c1 [Cpd J] | 40 | 40(12.2) % | – | 100 | 100(15.0) % | 83% and 130% and 87% | – | Cholesterol efflux to apoAI from normal fibroblasts (normal human fibroblasts): increase cholesterol efflux to apoAI from normal; Cholesterol Efflux (%), Normal Fibroblasts (normal human fibroblasts): 5.75% and 6.18% and 6.91%; Cholesterol efflux to apoAI from ABCA1-deficient fibroblasts [1]: not from ABCA1-deficient fibroblasts; Cholesterol Efflux (%), Tangier Fibroblasts [1]: 1.8% and 2.06% and 2.65%; Ki [2]: 12.4 ± 6.7 nM; Effect on ABCA1 mRNA (ABCA1 mRNA): no effect
CCCCNC(=O)CCc1ccc(-c2cc(C(=O)N[C@@H]3CCCC[C@H]3O)cnc2OCC2CC2)cc1 [Cpd N] | 38 | 38(9.5) % | – | 24 | 24(5.0) % | – | Inactive | –
